Test results from patent US20070149465A1, “COMPOSITIONS AND METHODS FOR PREVENTION AND TREATMENT OF CACHEXIA” (priority 2005, published 2007).

Assay: Aqueous stability of roxithromycin (% Purity by HPLC)
Format: physicochemical
Conditions: for Roxithromycin % Purity By Area Normalization: 2 mg/mL
Description: Roxithromycin stability was determined for 2 mg/mL [roxithromycin] at 5, 25, and 40° C. as a function of pH and buffer (citrate) concentration. Roxithromycin %Purity was determined by area normalization using a reverse-phase HPLC method that meets the requirements of the EP Monograph. Solution pH values were determined per USP <791>.

For `CC[C@H]1OC(=O)[C@H](C)[C@@H](O[C@H]2C[C@@](C)(OC)[C@@H](O)[C@H](C)O2)[C@H](C)[C@@H](O[C@@H]2O[C@H](C)C[C@H](N(C)C)[C@H]2O)[C@](C)(O)C[C@@H](C)/C(=N\OCOCCOC)[C@H](C)[C@@H](O)[C@]1(C)O` [roxithromycin], the “stability of aqueous formulation” value (2 mg/mL roxithromycin, 20 mM citrate buffer at pH 6) was “satisfactory”, the “Roxithromycin % Purity By Area Normalization” value (25° C., citrate pH 4, 20 mM, 0 mo) was 81% and the “Roxithromycin % Purity By Area Normalization” value (25° C., citrate pH 4, 20 mM, 0.3 mo) was 74%. For the same compound, the “Roxithromycin % Purity By Area Normalization” value (25° C., citrate pH 4, 20 mM, 0.5 mo) was 70%, the “Roxithromycin % Purity By Area Normalization” value (25° C., citrate pH 4, 20 mM, 0.9 mo) was 65% and the “Roxithromycin % Purity By Area Normalization” value (25° C., citrate pH 4, 20 mM, 1.5 mo) was 56%. The “Roxithromycin % Purity By Area Normalization” value (25° C., citrate pH 4, 20 mM, 2.6 mo) was 48%, the “Roxithromycin % Purity By Area Normalization” value (25° C., citrate pH 4, 20 mM, 5.3 mo) was 28% and the “Roxithromycin % Purity By Area Normalization” value (25° C., citrate pH 4, 20 mM, 7.3 mo) was 15%. For the same compound, the “Roxithromycin % Purity By Area Normalization” value (25° C., citrate pH 4, 50 mM, 0 mo) was 78%, the “Roxithromycin % Purity By Area Normalization” value (25° C., citrate pH 4, 50 mM, 0.3 mo) was 71% and the “Roxithromycin % Purity By Area Normalization” value (25° C., citrate pH 4, 50 mM, 0.5 mo) was 65%. For the same compound, the “Roxithromycin % Purity By Area Normalization” value (25° C., citrate pH 4, 50 mM, 0.9 mo) was 59%, the “Roxithromycin % Purity By Area Normalization” value (25° C., citrate pH 4, 50 mM, 1.5 mo) was 47% and the “Roxithromycin % Purity By Area Normalization” value (25° C., citrate pH 4, 50 mM, 2.6 mo) was 33%. The “Roxithromycin % Purity By Area Normalization” value (25° C., citrate pH 4, 50 mM, 5.3 mo) was 15%, the “Roxithromycin % Purity By Area Normalization” value (25° C., citrate pH 4, 50 mM, 7.3 mo) was 6% and the “Roxithromycin % Purity By Area Normalization” value (25° C., citrate pH 5, 20 mM, 0 mo) was 96%. The “Roxithromycin % Purity By Area Normalization” value (25° C., citrate pH 5, 20 mM, 0.3 mo) was 88%, the “Roxithromycin % Purity By Area Normalization” value (25° C., citrate pH 5, 20 mM, 0.5 mo) was 84% and the “Roxithromycin % Purity By Area Normalization” value (25° C., citrate pH 5, 20 mM, 0.9 mo) was 80%. For the same compound, the “Roxithromycin % Purity By Area Normalization” value (25° C., citrate pH 5, 20 mM, 1.5 mo) was 77%, the “Roxithromycin % Purity By Area Normalization” value (25° C., citrate pH 5, 20 mM, 2.6 mo) was 75% and the “Roxithromycin % Purity By Area Normalization” value (25° C., citrate pH 5, 20 mM, 5.3 mo) was 75%. The “Roxithromycin % Purity By Area Normalization” value (25° C., citrate pH 5, 20 mM, 7.3 mo) was 71%, the “Roxithromycin % Purity By Area Normalization” value (25° C., citrate pH 5, 50 mM, 0 mo) was 92% and the “Roxithromycin % Purity By Area Normalization” value (25° C., citrate pH 5, 50 mM, 0.3 mo) was 82%. The “Roxithromycin % Purity By Area Normalization” value (25° C., citrate pH 5, 50 mM, 0.5 mo) was 78%, the “Roxithromycin % Purity By Area Normalization” value (25° C., citrate pH 5, 50 mM, 0.9 mo) was 77% and the “Roxithromycin % Purity By Area Normalization” value (25° C., citrate pH 5, 50 mM, 1.5 mo) was 74%. For the same compound, the “Roxithromycin % Purity By Area Normalization” value (25° C., citrate pH 5, 50 mM, 2.6 mo) was 71%, the “Roxithromycin % Purity By Area Normalization” value (25° C., citrate pH 5, 50 mM, 5.3 mo) was 67% and the “Roxithromycin % Purity By Area Normalization” value (25° C., citrate pH 5, 50 mM, 7.3 mo) was 59%. The “Roxithromycin % Purity By Area Normalization” value (25° C., citrate pH 5, 100 mM, 0 mo) was 90%, the “Roxithromycin % Purity By Area Normalization” value (25° C., citrate pH 5, 100 mM, 0.3 mo) was 79% and the “Roxithromycin % Purity By Area Normalization” value (25° C., citrate pH 5, 100 mM, 0.5 mo) was 76%. The “Roxithromycin % Purity By Area Normalization” value (25° C., citrate pH 6, 20 mM, 0 mo) was 98%, the “Roxithromycin % Purity By Area Normalization” value (25° C., citrate pH 6, 20 mM, 0.3 mo) was 97% and the “Roxithromycin % Purity By Area Normalization” value (25° C., citrate pH 6, 20 mM, 0.5 mo) was 96%. The “Roxithromycin % Purity By Area Normalization” value (25° C., citrate pH 6, 20 mM, 0.9 mo) was 96%, the “Roxithromycin % Purity By Area Normalization” value (25° C., citrate pH 6, 20 mM, 1.5 mo) was 94% and the “Roxithromycin % Purity By Area Normalization” value (25° C., citrate pH 6, 20 mM, 2.6 mo) was 92%. The “Roxithromycin % Purity By Area Normalization” value (25° C., citrate pH 6, 20 mM, 5.3 mo) was 90%, the “Roxithromycin % Purity By Area Normalization” value (25° C., citrate pH 6, 20 mM, 7.3 mo) was 87% and the “Roxithromycin % Purity By Area Normalization” value (25° C., citrate pH 6, 50 mM, 0 mo) was 98%. The “Roxithromycin % Purity By Area Normalization” value (25° C., citrate pH 6, 50 mM, 0.3 mo) was 96%, the “Roxithromycin % Purity By Area Normalization” value (25° C., citrate pH 6, 50 mM, 0.5 mo) was 94% and the “Roxithromycin % Purity By Area Normalization” value (25° C., citrate pH 6, 50 mM, 0.9 mo) was 92%. The “Roxithromycin % Purity By Area Normalization” value (25° C., citrate pH 6, 50 mM, 1.5 mo) was 89%, the “Roxithromycin % Purity By Area Normalization” value (25° C., citrate pH 6, 50 mM, 2.6 mo) was 85% and the “Roxithromycin % Purity By Area Normalization” value (25° C., citrate pH 6, 50 mM, 5.3 mo) was 81%. For the same compound, the “Roxithromycin % Purity By Area Normalization” value (25° C., citrate pH 6, 50 mM, 7.3 mo) was 78%, the “Roxithromycin % Purity By Area Normalization” value (40° C., citrate pH 4, 20 mM, 0 mo) was 81% and the “Roxithromycin % Purity By Area Normalization” value (40° C., citrate pH 4, 20 mM, 0.3 mo) was 27%. For the same compound, the “Roxithromycin % Purity By Area Normalization” value (40° C., citrate pH 4, 20 mM, 0.5 mo) was 10%, the “Roxithromycin % Purity By Area Normalization” value (40° C., citrate pH 4, 20 mM, 0.9 mo) was 2% and the “Roxithromycin % Purity By Area Normalization” value (40° C., citrate pH 4, 50 mM, 0 mo) was 78%. The “Roxithromycin % Purity By Area Normalization” value (40° C., citrate pH 4, 50 mM, 0.3 mo) was 15%, the “Roxithromycin % Purity By Area Normalization” value (40° C., citrate pH 4, 50 mM, 0.5 mo) was 3% and the “Roxithromycin % Purity By Area Normalization” value (40° C., citrate pH 4, 50 mM, 0.9 mo) was 1%.
